Experiments:
[1] = test system: P-gp; conditions: not told; cited from earlier work
[2] = test system: AD 198^R cells; conditions: AD 198^R cells versus drug-sensitive cells; cited from earlier work
[3] = test system: J7/40V cells; assay: Cytotoxicity against vinblastine-resistant J7/40V cells; type: cell-based, murine
[4] = test system: purified mammalian topoisomerase II; conditions: cited from earlier work
[5] = test system: J7/A300 cells; assay: Cytotoxicity against AD 198-resistant J7/A300 cells; type: cell-based, murine
[6] = test system: transplanted MDR L1210 cells; conditions: cited from earlier work
[7] = test system: membrane; conditions: compared with anthracycline; cited from earlier work
[8] = test system: J774.2 cells; assay: Cytotoxicity against J774.2 cells; type: cell-based, murine; conditions: Mus musculus, J774.2; read-out: ID50 (the source's name)
[9] = test system: purified DNA; conditions: compared with anthracycline; cited from earlier work
[10] = test system: G2/M blockade; conditions: compared with anthracycline; cited from earlier work
[11] = test system: DNA; conditions: alkaline elution assays; cited from earlier work
[12] = test system: cultured murine and human tumor cells; conditions: compared with anthracycline; cited from earlier work
[13] = test system: MDR J774.2 cells selected with vinblastine; conditions: MDR J774.2 selected with vinblastine; cited from earlier work
[14] = test system: variant CCRF-CEM leukemic cells; conditions: cited from earlier work
[15] = test system: RNA versus DNA synthesis; conditions: compared with anthracycline; cited from earlier work
[16] = test system: P388 and L1210 leukemic cells and B16-BL6 melanoma cells; conditions: cited from earlier work

For CCCCC(=O)OCC(=O)[C@]1(O)Cc2c(O)c3c(c(O)c2[C@@H](O[C@H]2C[C@H](NCc4ccccc4)[C@H](O)[C@H](C)O2)C1)C(=O)c1c(OC)cccc1C3=O [AD 198], the “transport by P-gp from the cell” value [1] is listed as “inability of P-gp to transport AD 198 from the cell”, the “intracellular level of AD 198” value [2] is listed as “high levels of intracellular AD 198 similar to that of drug-sensitive cells” and the “RI J7/40V” value ([3]; J7/40V versus J774.2) is listed as 14. The IC50 ([3]; Mus musculus, J7/40V, read-out: ID50 (the source's name)) was 0.663 µM, the “inhibition of purified mammalian topoisomerase II” value [4] was “lack of inhibition” and the “resistance of cell line to the selecting drug” value ([5]; AD 198 resistant J7/A300 cells) was 15 -fold. For the same molecule, the “RI J7/A300” value ([5]; J7/A300 versus J774.2) was 15, the IC50 ([5]; Mus musculus, J7/A300, read-out: ID50 (the source's name)) was 0.748 µM and the efficacy in vivo [6] was “limited efficacy”. The membrane lytic activity [7] was “pronounced membrane lytic activity”, the IC50 [8] was 0.049 µM and the “binding to purified DNA” value [9] was “weaker binding to purified DNA”. For the same molecule, the G2/M blockade [10] was “irreversible G2 /M blockade”, the “protein-associated DNA strand breaks” value [11] was “significant levels of protein-associated DNA strand breaks” and the cytotoxicity [12] was “enhanced cytotoxicity”. The cross-resistance [13] was “cross-resistant to AD 198”, the “ability to circumvent MDR and resistance due to altered topoisomerase II activity” value [14] was “ability to circumvent MDR” and the “inhibition of RNA versus DNA synthesis” value [15] was “preferential inhibition of RNA versus DNA synthesis”. The “ability to circumvent MDR” value [16] was “ability to circumvent MDR”.
